# Reference: ChEMBL document CHEMBL1125012, “Inhibition of enzymes of estrogen and androgen biosynthesis by esters of 4-pyridylacetic acid” (J Med Chem, 1990)
# Several values for one entry are separate records, joined by “and”; a condition that tells them apart may be missing. Identical values can stand only once.
# Target: T1, Steroid 17-alpha-hydroxylase/17,20 lyase (Rattus norvegicus, UniProt P11715)
# T1 sequence (P11715 whole entry): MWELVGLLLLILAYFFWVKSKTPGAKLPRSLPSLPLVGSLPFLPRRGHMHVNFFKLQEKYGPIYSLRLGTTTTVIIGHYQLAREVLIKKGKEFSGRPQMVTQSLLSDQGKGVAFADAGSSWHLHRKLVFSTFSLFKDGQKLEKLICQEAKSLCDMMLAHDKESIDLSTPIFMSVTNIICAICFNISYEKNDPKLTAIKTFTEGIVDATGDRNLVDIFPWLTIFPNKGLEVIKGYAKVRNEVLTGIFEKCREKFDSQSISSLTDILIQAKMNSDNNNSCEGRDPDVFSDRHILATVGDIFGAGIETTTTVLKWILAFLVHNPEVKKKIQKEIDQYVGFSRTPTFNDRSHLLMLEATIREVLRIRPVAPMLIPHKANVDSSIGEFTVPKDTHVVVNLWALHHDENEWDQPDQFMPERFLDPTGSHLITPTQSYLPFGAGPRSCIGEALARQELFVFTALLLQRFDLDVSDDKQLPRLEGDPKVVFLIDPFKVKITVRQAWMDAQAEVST
row,Compound,IC50
1,O=C(Cc1ccncc1)OC12CC3CC(CC(C3)C1)C2,0.61 µM and 0.56 µM
2,CCC1CCC(OC(=O)Cc2ccncc2)CC1 (stereo unspecified),2.7 µM and 2 µM
3,CC1CCC(OC(=O)Cc2ccncc2)CC1 (stereo in doubt; 6),36 µM and 25 µM
4,CC(C)(C(=O)OC1CCCCC1)c1ccncc1,4.5 µM and 3.6 µM
5,O=C(Cc1ccncc1)OC1=CC2CCC1C2 (stereo in doubt; 15),46 µM and 45 µM
6,CC1CCC(OC(=O)Cc2ccncc2)CC1 (trans isomer),4.4 µM and 4.2 µM
7,O=C(Cc1ccncc1)Oc1ccccc1,> 100 µM
8,O=C(Cc1ccncc1)OC1CCCC1,131 µM and 77 µM
9,CC(C)(C)C1CCC(OC(=O)Cc2ccncc2)CC1 (stereo unspecified),3 µM and 2.1 µM
10,CC(C)CCOC(=O)Cc1ccncc1,> 100 µM
11,CC1C(OC(=O)Cc2ccncc2)CC2CC1C2(C)C (stereo in doubt; 18),0.28 µM and 0.26 µM
12,CC1C(OC(=O)Cc2ccncc2)CC2CC1C2(C)C (stereo in doubt; 19),1.8 µM and 1.7 µM
13,CC1CCC(C(C)C)C(OC(=O)Cc2ccncc2)C1 (stereo in doubt; 12),5.1 µM and 4.5 µM
14,CC1CCC(C(C)C)C(OC(=O)Cc2ccncc2)C1 (stereo in doubt; 13),15 µM and 12 µM
15,CC(C)OC(=O)Cc1ccncc1,> 100 µM
16,CC1(OC(=O)Cc2ccncc2)CCCCC1,11 µM and 10 µM
17,CC(C)CC(C)OC(=O)Cc1ccncc1 (stereo unspecified),17 µM and 13 µM
18,CC1(C)C2CCC1(C)C(OC(=O)Cc1ccncc1)C2 (stereo in doubt; 17),0.54 µM and 0.59 µM
19,CC1CCC(OC(=O)Cc2ccncc2)C1 (stereo unspecified),32 µM and 28 µM
20,"CC1(C)C2CCC1(C)C(OC(=O)Cc1ccncc1)C2 (single isomer, unassigned; (-))",2.2 µM and 1.5 µM
21,O=C(Cc1ccncc1)OC1=CC2CCC1C2 (stereo in doubt; 14),41 µM and 31 µM
